Test results published in patent publication US4753802A (Alza Corporation, priority 1986, dated 1988).
Counter-ions that a name gives are not always drawn.

Tests used:
[1] = Osmotic pressure of saturated verapamil hydrochloride solution / of the blend of verapamil plus osmotic solute (vapor pressure osmometry); assay type: physicochemical; conditions: for π, osmotic pressure of the blend of Sd plus So: verapamil plus the osmotic solute named in the line
Description: (§1) The results of the formulation are given in the accompanying table.

[2] = Cumulative amount of verapamil released over time from formulations with osmotic solutes; assay type: physicochemical; conditions: verapamil formulated with osmotic solute at equilibrium ratio
Description: as §1

[3] = Solubility of verapamil and of osmotic solutes in a common aqueous fluid
Description: as §1

[4] = in common aqueous fluid with verapamil

**Q.** Which “π, osmotic pressure of the blend of Sd plus So” value [1] does the source give for `O=C(O)CCC(=O)O` [Succinic Acid] here?
**A.** 22.9 atm

**Q.** Which “osmotic pressure of a saturated aqueous solution” value ([1]; at 37° C., vapor pressure osmometry) does the source give for `COc1ccc(CCN(C)CCCC(C#N)(c2ccc(OC)c(OC)c2)C(C)C)cc1OC` (stereo not drawn) [Verapamil-HCl, verapamil hydrochloride, reference compound] here?
**A.** 11 atm

**Q.** What about the “π, osmotic pressure” value ([1]; verapamil-HCl alone) of the same compound?
**A.** 10.9 atm

**Q.** What about the “π, osmotic pressure” value ([1]; verapamil-HCl in AGF) of the same compound?
**A.** 13.0 atm

**Q.** And the “π, osmotic pressure” value ([1]; verapamil-HCl in AIF)?
**A.** 13.3 atm

**Q.** With `COc1ccc(CCN(C)CCCC(C#N)(c2ccc(OC)c(OC)c2)C(C)C)cc1OC` (stereo not drawn) [verapamil, reference compound] as the compound, how does the “osmotic pressure of verapamil in the presence of mannitol” value ([1]; in the presence of mannitol) read?
**A.** raised in the presence of mannitol

**Q.** Which “π, osmotic pressure of the blend of Sd plus So” value [1] does the source give for `O[C@H]1[C@H](O)[C@@H](O)[C@H](O)[C@@H](O)[C@H]1O` [Inositol] here?
**A.** 20.6 atm

**Q.** And the “cumulative amount of verapamil released over time” value [2]?
**A.** insufficient cumulative amount of verapamil released over time

**Q.** With `O=C[C@H](O)[C@@H](O)[C@@H](O)[C@H](O)CO` [D-Galactose] as the compound, how does the “π, osmotic pressure of the blend of Sd plus So” value [1] read?
**A.** 87.1 atm

**Q.** What about the “So, solubility of the osmotic solute” value [3, 4] of the same compound?
**A.** 457 mg/mL

**Q.** With `O=C(O)CC(O)C(=O)O` (stereo not drawn) [Malic Acid] as the compound, how does the “So, solubility of the osmotic solute” value [3, 4] read?
**A.** 436 mg/mL

**Q.** For `O=C(O)C(O)C(O)C(=O)O` (stereo not drawn) [Sodium Tartrate], which “π, osmotic pressure of the blend of Sd plus So” value [1] is on record?
**A.** 100.0 atm

**Q.** What does the source list for `O=C(O)/C=C/C(=O)O` [Fumaric Acid]?
**A.** π, osmotic pressure of the blend of Sd plus So [1]: 21.4 atm; So, solubility of the osmotic solute ([3]; common aqueous fluid): 77 mg/mL

**Q.** Which results are given for `OC[C@@H](O)[C@@H](O)[C@H](O)[C@H](O)CO` [Mannitol]?
**A.** π, osmotic pressure of the blend of Sd plus So [1]: 42.8 atm; So, solubility of the osmotic solute ([3]; common aqueous fluid): 219 mg/mL

**Q.** With `O=C(O)CCCCC(=O)O` [Adipic Acid] as the compound, how does the “π, osmotic pressure of the blend of Sd plus So” value [1] read?
**A.** 13.9 atm

**Q.** For `O=C(O)CCC(=O)O` [Disodium Succinate], which “π, osmotic pressure of the blend of Sd plus So” value [1] is on record?
**A.** 36.6 atm

**Q.** Which “So, solubility of the osmotic solute” value ([3]; common aqueous fluid) does the source give for `COc1ccccc1OCC(O)CO` (stereo not drawn) [Guaifenesin, reference compound] here?
**A.** 81 mg/mL

**Q.** With `O=C[C@H](O)[C@@H](O)[C@@H](O)CO` [L-Arabinose] as the compound, how does the “π, osmotic pressure of the blend of Sd plus So” value [1] read?
**A.** 110.3 atm

**Q.** What about the “So, solubility of the osmotic solute” value ([3]; common aqueous fluid) of the same compound?
**A.** 473 mg/mL

**Q.** With `O=C1O[C@H]([C@@H](O)CO)C(O)=C1O` [Ascorbic Acid] as the compound, how does the “π, osmotic pressure of the blend of Sd plus So” value [1] read?
**A.** 76.8 atm

**Q.** Which “So, solubility of the osmotic solute” value [3, 4] does the source give for “Insulin: Insulin, listed as osmotic solute in the table” here?
**A.** 50 mg/mL

**Q.** What about the “ST, total solubility of Sd and So” value ([3]; verapamil plus osmotic solute in a common aqueous fluid) of the same compound?
**A.** 197 mg/mL
